Data on 3 compounds can be found in ChEMBL document CHEMBL4431349, “Synthesis and in vitro evaluation of water-soluble 1,4-diphenethylpiperazine analogs as novel inhibitors of the vesicular monoamine transporter-2” (Bioorg Med Chem Lett, 2016).

Data set [1] has as its target Voltage-gated inwardly rectifying potassium channel KCNH2 (Homo sapiens, UniProt Q12809). Description: Inhibition of [3H]dofetilide binding to human ERG expressed in HEK293 cell membranes after 60 mins by liquid scintillation spectrometric analysis.
Data set [2] is described as follows: Thermodynamic solubility of the compound in water at pH 7.4 after 24 hrs by HPLC based shake flask method. Conditions: read-out: Therm_solubility. Format: physicochemical.

Sequence of Voltage-gated inwardly rectifying potassium channel KCNH2 (Q12809 whole entry): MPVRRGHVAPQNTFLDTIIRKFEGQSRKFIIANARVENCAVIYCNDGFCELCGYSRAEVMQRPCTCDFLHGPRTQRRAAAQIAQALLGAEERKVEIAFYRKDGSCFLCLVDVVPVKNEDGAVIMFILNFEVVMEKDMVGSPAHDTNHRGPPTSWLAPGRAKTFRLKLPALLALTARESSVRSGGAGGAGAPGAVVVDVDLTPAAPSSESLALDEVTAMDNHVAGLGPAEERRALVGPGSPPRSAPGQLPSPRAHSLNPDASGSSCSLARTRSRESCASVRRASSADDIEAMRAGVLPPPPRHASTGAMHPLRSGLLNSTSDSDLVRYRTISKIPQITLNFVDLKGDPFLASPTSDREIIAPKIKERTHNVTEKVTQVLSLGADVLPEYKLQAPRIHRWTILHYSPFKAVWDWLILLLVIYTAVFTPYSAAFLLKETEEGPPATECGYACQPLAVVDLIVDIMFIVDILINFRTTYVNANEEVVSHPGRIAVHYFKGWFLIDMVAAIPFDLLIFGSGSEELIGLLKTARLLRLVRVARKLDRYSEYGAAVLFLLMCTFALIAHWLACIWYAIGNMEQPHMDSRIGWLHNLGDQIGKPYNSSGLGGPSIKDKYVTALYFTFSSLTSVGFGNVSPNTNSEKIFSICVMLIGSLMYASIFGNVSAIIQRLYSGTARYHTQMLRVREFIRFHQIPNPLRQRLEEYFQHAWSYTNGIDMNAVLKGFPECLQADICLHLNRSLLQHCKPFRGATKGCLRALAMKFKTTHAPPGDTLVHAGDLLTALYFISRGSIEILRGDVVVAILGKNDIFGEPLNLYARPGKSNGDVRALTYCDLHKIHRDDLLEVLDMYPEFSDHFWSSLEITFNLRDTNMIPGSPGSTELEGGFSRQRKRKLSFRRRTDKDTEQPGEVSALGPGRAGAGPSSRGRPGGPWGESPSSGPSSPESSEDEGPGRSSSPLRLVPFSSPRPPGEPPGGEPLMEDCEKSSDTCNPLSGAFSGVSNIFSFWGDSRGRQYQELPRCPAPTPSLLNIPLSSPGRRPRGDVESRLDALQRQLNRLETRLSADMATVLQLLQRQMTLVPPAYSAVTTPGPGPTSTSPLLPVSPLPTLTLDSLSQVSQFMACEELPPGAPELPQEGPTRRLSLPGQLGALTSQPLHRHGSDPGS

As usually defined, the Ki is the equilibrium dissociation constant of an inhibitor or competing ligand from its target. As for `Clc1ccccc1CCN1CCN(CCc2ccccc2Cl)CC1`, the Ki in data set [1] was 1080 nM.

`COc1ccccc1CCN1CCN(CCc2ccccc2OC)CC1`: in data set [1], the Ki amounted to 1020 nM.

Turning to `COc1ccccc1CCN1CCN(CCc2ccccc2)CC1.Cl.Cl`, in data set [1], the affinity, expressed as Ki, was 2940 nM. Further, in data set [2], the solubility thermodynamic at 24 h came out at 33.3 mg/mL.
